26 compounds from ChEMBL document CHEMBL3870366, “Rational design, synthesis, and structure-activity relationships of 5-amino-1H-pyrazole-4-carboxylic acid derivatives as protein tyrosine phosphatase 1B inhibitors” (Bioorg Med Chem, 2017) can be followed below.

Series [1] concerns the target T1, Tyrosine-protein phosphatase non-receptor type 1 (Homo sapiens) (UniProt P18031).
T1 sequence (whole entry): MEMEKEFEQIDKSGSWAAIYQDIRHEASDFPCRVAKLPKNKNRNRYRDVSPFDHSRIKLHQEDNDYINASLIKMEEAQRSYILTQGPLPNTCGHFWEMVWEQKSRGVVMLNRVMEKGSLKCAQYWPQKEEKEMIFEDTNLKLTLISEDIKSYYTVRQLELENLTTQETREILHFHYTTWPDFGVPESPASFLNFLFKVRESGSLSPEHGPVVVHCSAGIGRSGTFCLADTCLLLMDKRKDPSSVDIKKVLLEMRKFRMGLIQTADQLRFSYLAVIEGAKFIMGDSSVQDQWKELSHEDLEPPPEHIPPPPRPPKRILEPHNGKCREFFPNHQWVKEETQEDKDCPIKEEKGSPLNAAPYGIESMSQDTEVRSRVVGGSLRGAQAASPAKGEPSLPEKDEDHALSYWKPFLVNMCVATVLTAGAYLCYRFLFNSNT
Briefly: Inhibition of recombinant human PTP1B expressed in Escherichia coli expression system using pNPP as substrate at 100 uM preincubated for 30 mins followed by substrate addition by […].

Series [2] concerns the target T1, Tyrosine-protein phosphatase non-receptor type 1 (Homo sapiens). Nature of the series: Inhibition of recombinant human PTP1B expressed in Escherichia coli expression system using pNPP as substrate at 10 uM preincubated for 30 mins followed by substrate addition by […].
Series [3] can be described thus: Intrinsic permeability of compound at 50 uM at pH 7.4 after 16 hrs by PAMPA assay. It counts as ADME. Background: The PAMPA barrier holds no transporters, so it reflects passive diffusion.
Series [4] addresses T2, Tyrosine-protein phosphatase non-receptor type 1 (Homo sapiens, UniProt P18031).
T2 sequence (P18031 whole entry): T1 sequence (whole entry)
Briefly: Inhibition of recombinant human PTP1B expressed in Escherichia coli expression system using pNPP as substrate preincubated for 30 mins followed by substrate addition by […].

Series [5] is described as follows: Intrinsic clearance in rat liver microsomes at 1 uM preincubated for 5 mins followed by NADPH addition measured up to 30 mins by LC-MS/MS analysis. The format is ADME. The conditions noted are these: 0.5 h.
Series [6] is described as follows: Intrinsic clearance in mouse liver microsomes at 1 uM preincubated for 5 mins followed by NADPH addition measured up to 30 mins by LC-MS/MS analysis. It counts as ADME. The conditions noted are these: 0.5 h.

As a reminder, the inhibition is the relative decrease from the control value, in per cent. With `Nc1c(C(=O)O)cnn1-c1ccc(CN(Cc2ccccc2)Cc2ccccc2)cc1`, the inhibition in series [1] is 64%; in series [2], 8.9%.
For `Nc1c(C(=O)O)cnn1-c1ccc(CC(C(=O)c2ccc(F)cc2)c2ccccc2)cc1` (stereo not given), in that order: 36.8% and 12.1%.
Regarding `Nc1c(C(=O)O)cnn1-c1ccc(CC(C(=O)c2ccc(Cl)cc2)c2ccc(F)cc2)cc1` (stereo not given), the inhibition amounted to 89.5% in series [1] and 18.8% in series [2].
What is called Papp is a coefficient for how fast a substance crosses the barrier. On to `Nc1c(C(=O)O)cnn1-c1ccc(CC(C(=O)c2ccc(Cl)cc2)c2ccc(F)c(F)c2)cc1` (stereo not given), for which the figures for the inhibition in series [1] and in series [2] were 91.5% and 16.2%, respectively. In addition, the apparent permeability (Papp) at 16 h, 50 µM in series [3] came to 1.5 ×10⁻⁶ cm/s.
As a reminder, the Ki is the dissociation constant of the complex between target and ligand, obtained from inhibition or displacement. Take `Nc1c(C(=O)O)cnn1-c1ccc(CN(Cc2ccc(F)cc2)Cc2ccc(F)c(F)c2)cc1`: the inhibition was 95.2% in series [1] and 19.5% in series [2]. This compound also came in with a Papp at 16 h, 50 µM in series [3] of 27.9 ×10⁻⁶ cm/s. In addition, in series [4], the Ki was 13 µM. Besides, the “intrinsic clearance (CLint)” value in series [5] turned out to be 3 mL/min/g. In series [6], the CLH came to 2.7 mL/min/g.
As for `Nc1c(C(=O)O)cnn1-c1ccc(CC(c2ccccc2)c2nc(-c3ccccc3)no2)cc1` (stereo not given), the inhibition in series [1] came to 64%; in series [2], 12.2%.
For `COc1ccc(CN(Cc2ccc(F)cc2)Cc2ccc(-n3ncc(C(=O)O)c3N)cc2)cc1OC`, the inhibition in series [1] was 94%; in series [2], 35.1%. In series [4], the inhibition constant (Ki) amounted to 4.1 µM. The “intrinsic clearance (CLint)” value in series [5] came to 4 mL/min/g. The CLH in series [6] came out at 7.4 mL/min/g.
`CC(C)NCC(O)COc1cccc2ccccc12` (stereo not given) [PROPRANOLOL] gave a Papp at 16 h, 50 µM in series [3] of 16.6 ×10⁻⁶ cm/s.
With `COc1ccc(C(Cc2ccc(-n3ncc(C(=O)O)c3N)cc2)c2nc(-c3cccc(F)c3)no2)cc1` (stereo not given), the inhibition in series [1] was 93.3%; in series [2], 22%. Also, in series [4], the Ki worked out at 8.6 µM. Moreover, the “intrinsic clearance (CLint)” value in series [5] worked out at 3 mL/min/g. In series [6], this compound yielded a CLH of 1.3 mL/min/g.
Turning to `Nc1c(C(=O)O)cnn1-c1ccc(CC(c2ccc(F)cc2)c2nc(-c3cccc(F)c3)no2)cc1` (stereo not given), the values for the inhibition in series [1] and in series [2] were 94.9% and 19%, respectively.
`Nc1c(C(=O)O)cnn1-c1ccc(CC(C(=O)c2ccc(F)cc2)c2ccc(F)c(F)c2)cc1` (stereo not given): the inhibition in series [1] was 82.2%; in series [2], 21.6%.
In the same order, the values of `COc1ccc(CN(Cc2ccc(C)cc2)Cc2ccc(-n3ncc(C(=O)O)c3N)cc2)cc1` are 49.7% and 5%.
On to `Nc1c(C(=O)O)cnn1-c1ccc(CC(C(=O)c2ccccc2)c2ccc(F)cc2)cc1` (stereo not given), for which the inhibition in series [1] stood at 43.9%; in series [2] it was 19%.
As for `COc1ccc(-c2noc(C(Cc3ccc(-n4ncc(C(=O)O)c4N)cc3)c3ccc(F)cc3)n2)cc1` (stereo not given), the results for the inhibition in series [1] and in series [2] were 95.5% and 25.8%, respectively. The compound further displayed a Papp at 16 h, 50 µM in series [3] of 0.4 ×10⁻⁶ cm/s. In series [4], the inhibition constant (Ki) stood at 8.1 µM. Moreover, the “intrinsic clearance (CLint)” value in series [5] turned out to be 3 mL/min/g. The CLH in series [6] amounted to 1.5 mL/min/g.
As for `COc1ccc(CN(Cc2ccc(F)cc2)Cc2ccc(-n3ncc(C(=O)O)c3N)cc2)cc1`, the results for the inhibition in series [1] and in series [2] were 82.2% and 21.6%, respectively.
As for `Nc1c(C(=O)O)cnn1-c1ccc(CC(c2ccc(F)cc2)c2nc(-c3ccc(Cl)cc3)no2)cc1` (stereo not given), the inhibition in series [1] amounted to 97.3%; in series [2] it was 30.8%. The compound further showed an apparent permeability (Papp) at 16 h, 50 µM in series [3] of 9.1 ×10⁻⁶ cm/s. The Ki in series [4] turned out to be 4.6 µM. Moreover, in series [5], the “intrinsic clearance (CLint)” value is 3 mL/min/g. Also, in series [6], the CLH came to 0 mL/min/g.
With `Nc1c(C(=O)O)cnn1-c1ccc(CN(Cc2ccc(F)cc2)Cc2ccc(Cl)cc2)cc1`, the inhibition in series [1] was 97.4%; in series [2] it was 43.8%. In series [3], this compound had a Papp at 16 h, 50 µM of 10.6 ×10⁻⁶ cm/s. Moreover, the inhibition constant Ki in series [4] was 4.5 µM. In series [5], the “intrinsic clearance (CLint)” value was found to be 3 mL/min/g. In addition, the CLH in series [6] came to 2.1 mL/min/g.
Take `COc1ccc(C(Cc2ccc(-n3ncc(C(=O)O)c3N)cc2)c2nc(-c3ccc(Cl)cc3)no2)cc1` (stereo not given): the inhibition in series [1] was found to be 98.3%; in series [2], 33.7%. The Ki in series [4] amounted to 4.4 µM. In series [5], the “intrinsic clearance (CLint)” value is 2 mL/min/g. In series [6], this compound gave a CLH of 1.5 mL/min/g.
In the case of `COc1ccc(C(=O)C(Cc2ccc(-n3ncc(C(=O)O)c3N)cc2)c2ccc(OC)cc2)cc1` (stereo not given), the inhibition in series [1] stood at 39.7%; in series [2] it was 4.8%.
With `COc1ccc(C(=O)C(Cc2ccc(-n3ncc(C(=O)O)c3N)cc2)c2ccc(F)cc2)cc1` (stereo not given), the values for the inhibition in series [1] and in series [2] were 58.5% and 13.5%, respectively.
For `Nc1c(C(=O)O)cnn1-c1ccc(CN(Cc2ccc(F)cc2)Cc2ccc(F)cc2)cc1`, the inhibition worked out at 98.4% in series [1] and 40.8% in series [2].
Regarding `Nc1c(C(=O)O)cnn1-c1ccc(CC(C(=O)c2ccc(F)cc2)c2ccc(F)cc2)cc1` (stereo not given), the inhibition came to 34.4% in series [1] and 0.8% in series [2].
For the compound `Nc1c(C(=O)O)cnn1-c1ccc(CC(C(=O)c2ccccc2)c2ccccc2)cc1` (stereo not given), the figures for the inhibition in series [1] and in series [2] were 32.6% and 9.6%, respectively.
Turning to `Nc1c(C(=O)O)cnn1-c1ccc(CC(C(=O)c2ccccc2)c2ccc(F)c(F)c2)cc1` (stereo not given), the figures for the inhibition in series [1] and in series [2] were 48.5% and 10.5%, respectively.
With `COc1ccc(CN(Cc2ccc(OC)cc2)Cc2ccc(-n3ncc(C(=O)O)c3N)cc2)cc1`, the values for the inhibition in series [1] and in series [2] were 76.9% and 9.9%, respectively. For the same compound, the Papp at 16 h, 50 µM in series [3] came out at 12.5 ×10⁻⁶ cm/s. Also, the Ki in series [4] amounted to 7.1 µM. In addition, the “intrinsic clearance (CLint)” value in series [5] was found to be 2.5 mL/min/g. The same compound registered a CLH in series [6] of 5.6 mL/min/g.
Take `Nc1c(C(=O)O)cnn1-c1ccc(CN(Cc2ccc(Cl)cc2)Cc2ccc(F)c(F)c2)cc1`: the inhibition was 97.2% in series [1] and 22.5% in series [2]. In series [3], this compound displayed an apparent permeability (Papp) at 16 h, 50 µM of 49.8 ×10⁻⁶ cm/s. For the same compound, in series [4], the Ki came out at 11 µM. In addition, the “intrinsic clearance (CLint)” value in series [5] was 2 mL/min/g. Also, in series [6], the CLH was determined as 1.2 mL/min/g.
